# Measurements as given in ChEMBL document CHEMBL3621060, “Synthesis and anticancer activities of novel 8-azapurine carbocyclic nucleoside hydrazones” (Bioorg Med Chem Lett, 2015).
# Columns and labels:
# [1] = Anticancer activity against human HuH7 cells assessed as inhibition of cell growth at 10 uM incubated for 4 days by CCK8 assay; assay type: functional; conditions: Huh-7, 96 h, read-out: GI
# [2] = test system: A549; assay: Anticancer activity against human A549 cells assessed as inhibition of cell growth at 10 uM incubated for 4 days by CCK8 assay; assay type: functional; conditions: A549, 96 h, read-out: GI
# [3] = Anticancer activity against human HuH7 cells assessed as inhibition of cell growth incubated for 4 days by CCK8 assay; assay type: functional, cell-based; conditions: Huh-7, 96 h
# [4] = test system: P388; assay: Cytotoxicity against mouse P388 cells; assay type: functional; conditions: read-out: ED50 (the source's name)
SMILES,inhibition of growth at 10 µM [1] [%],inhibition of growth at 10 µM [2] [%],IC50 [3] [µM],EC50 [4] [µM]
CCCSc1nc(N/N=C/c2ccccc2)c2nnn([C@@H]3C[C@H](O)[C@@H](O)[C@H]3O)c2n1,20.1,22.9,–,–
CCCSc1nc(N/N=C/c2ccc(F)c(F)c2)c2nnn([C@@H]3C[C@H](O)[C@@H](O)[C@H]3O)c2n1,31.5,26.9,–,–
CCCSc1nc(N/N=C/c2ccccc2O)c2nnn([C@@H]3C[C@H](O)[C@@H](O)[C@H]3O)c2n1,34.5,24.3,–,–
CCCSc1nc(N/N=C/c2cccc(O)c2)c2nnn([C@@H]3C[C@H](O)[C@@H](O)[C@H]3O)c2n1,36.5,21.4,–,–
CCCSc1nc(N/N=C/c2ccc(O)cc2)c2nnn([C@@H]3C[C@H](O)[C@@H](O)[C@H]3O)c2n1,43.8,32.3,–,–
CCCSc1nc(N/N=C/c2ccc(O)cc2O)c2nnn([C@@H]3C[C@H](O)[C@@H](O)[C@H]3O)c2n1,38.3,33,–,–
CCCSc1nc(N/N=C/c2ccccc2OC)c2nnn([C@@H]3C[C@H](O)[C@@H](O)[C@H]3O)c2n1,43.8,31.6,–,–
CCCSc1nc(N/N=C/c2ccc(OC)cc2)c2nnn([C@@H]3C[C@H](O)[C@@H](O)[C@H]3O)c2n1,57.3,69.2,–,–
CCCSc1nc(N/N=C/c2ccc(OC)c(OC)c2)c2nnn([C@@H]3C[C@H](O)[C@@H](O)[C@H]3O)c2n1,26.9,28.9,–,–
CCCSc1nc(N/N=C/c2ccccc2Cl)c2nnn([C@@H]3C[C@H](O)[C@@H](O)[C@H]3O)c2n1,37.7,30.5,–,–
CCCSc1nc(N/N=C/c2ccc(Cl)cc2)c2nnn([C@@H]3C[C@H](O)[C@@H](O)[C@H]3O)c2n1,47.8,34.2,–,–
CCCSc1nc(N/N=C/c2ccc(Cl)cc2Cl)c2nnn([C@@H]3C[C@H](O)[C@@H](O)[C@H]3O)c2n1,51.2,41.6,–,–
CCCSc1nc(N/N=C/c2cccc([N+](=O)[O-])c2)c2nnn([C@@H]3C[C@H](O)[C@@H](O)[C@H]3O)c2n1,58.5,68,–,–
CCCSc1nc(N/N=C/c2ccc([N+](=O)[O-])cc2)c2nnn([C@@H]3C[C@H](O)[C@@H](O)[C@H]3O)c2n1,68,67.6,11.7,–
CCCSc1nc(N/N=C/c2ccccn2)c2nnn([C@@H]3C[C@H](O)[C@@H](O)[C@H]3O)c2n1,52.5,38.6,–,–
CCCSc1nc(N/N=C/c2cccs2)c2nnn([C@@H]3C[C@H](O)[C@@H](O)[C@H]3O)c2n1,50,38.8,–,–
Nc1ncnc2c1nnn2[C@@H]1C[C@H](CO)[C@H](O)[C@H]1O,–,–,–,0.38
O=c1[nH]cc(F)c(=O)[nH]1 [FLUOROURACIL],78.7,64.5,–,–
